# Assay results from ChEMBL document CHEMBL5126587 (Bioorg Med Chem, 2022).
# Calls of active or inactive are those of the source. The rule behind the calls is not given here. Numbered stars: 1 amine (or outer) side, 2 acyl side, 3 side chain; on linkers, the order of the positions; unused ones are H or OH. Peptide text beside a SMILES is read from it. * marks the point of attachment. X1 = NC(=O)c1n[nH]nc1[C@@H]1O[C@H](COC(=O)CCC(=O)NCCCOCCOCCOCCCN*)[C@@H](O)[C@H]1O; Suc = O=C(CCC(=O)[*:2])[*:1]
# Legend:
# [1] = tested on: Hepatitis C virus; type: functional, Hepacivirus hominis, genotype 2a (JFH-AM71), Huh7-J20; conditions: dose 0.045 µM; time 72 hrs
# [2] = tested on: Zika virus; type: functional
# [3] = tested on: Hepatitis C virus; type: functional, Hepacivirus hominis, genotype 2a (JFH-AM71), Huh7-J20; conditions: dose 100 µM; time 72 hrs
# [4] = tested on: Zika virus; type: functional, H/PAN/2016/BEI-259634, Vero
# [5] = tested on: Hepatitis C virus; assay: microbe, parasite or virus in culture; conditions: genotype 2a (JFH-AM71), Huh7-J20, 72 h
# [6] = in vitro; conditions: human, Huh7-J20 cells
# [7] = tested on: Zika virus; assay: microbe, parasite or virus in culture; conditions: H/PAN/2016/BEI-259634, Vero, 72 h
# [8] = in vitro; conditions: human, Huh7.5 cells
# [9] = tested on: Zika virus; type: functional, H/PAN/2016/BEI-259634, Huh7.5; conditions: dose 50-100 µM; time 3 day; at 50 to 100 µM
# [10] = tested on: Zika virus; type: functional, H/PAN/2016/BEI-259634, Vero; conditions: dose 50-100 µM; time 3 day; at 50 to 100 µM
# [11] = tested on: Zika virus; assay: microbe, parasite or virus in culture; conditions: H/PAN/2016/BEI-259634, Huh7.5, 72 h
# [12] = in vitro; conditions: monkey, Vero cells
# [13] = H/PAN/2016/BEI-259634, Huh7.5, dose 100.0 µM, time 3.0 day
Structure (SMILES),"Activity [2, 13]",Activity [3] [%],"Activity ([4]; dose 100 µM, time 3 day) [%]",IC50 [5] [µM],selectivity ratio [6],other results
CC[C@H](C)[C@H](NC(=O)[C@H](Cc1cnc[nH]1)NC(=O)[C@H](Cc1c[nH]c2ccccc12)NC(=O)[C@H](CO)NC(=O)CCC(=O)NCCCOCCOCCOCCCNC(=O)CCC(=O)OC[C@H]1O[C@@H](c2n[nH]nc2C(N)=O)[C@H](O)[C@@H]1O)C(=O)N[C@@H](CC(N)=O)C(=O)N[C@@H](CCCNC(=N)N)C(=O)N[C@H](C(=O)N[C@@H](C)C(=O)N[C@@H](CC(C)C)C(=O)N[C@@H](CC(N)=O)C(=O)N[C@@H](CO)C(=O)N[C@@H](CC(N)=O)C(=O)N[C@@H](CC(=O)O)C(=O)N[C@@H](CO)C(N)=O)[C@@H](C)O ({X1-Suc}-SWHINRTALNSNDS-NH2),,,,,,Activity [1]: 45%
CC(=O)OC[C@H]1O[C@@H](c2n[nH]nc2C(N)=O)[C@H](OC(C)=O)[C@@H]1OC(C)=O,Active,,,,,
NC(=O)c1n[nH]nc1[C@@H]1O[C@H](CO)[C@@H](O)[C@H]1O,,60,20,68,15.7,
O=C(NO)c1n[nH]nc1[C@@H]1O[C@H](CO)[C@@H](O)[C@H]1O,Active,67,,49.1,16.8,"IC50 [7]: 33.2 µM; selectivity ratio [8]: 23.8; Activity ([4]; H/PAN/2016/BEI-259634, Vero, dose 100.0 µM, time 3.0 day): Active; Activity [9]: 70%; Activity [10]: 70%; IC50 [11]: 37.3 µM; selectivity ratio [12]: 29.1"
CCCNC(=O)c1n[nH]nc1[C@@H]1O[C@H](CO)[C@@H](O)[C@H]1O,Active,45,,100,7.3,
NC(=O)c1ncn([C@@H]2O[C@H](CO)[C@@H](O)[C@H]2O)n1 [RIBAVIRIN],,80,80,21.8,46.8,"IC50 [7]: 29.9 µM; selectivity ratio [8]: 240; Activity ([2]; dose 100 µM, time 3 day): 80%; IC50 [11]: 6.9 µM; selectivity ratio [12]: 41.6"
N=C(N)NCCC[C@H](NC(=O)[C@H](CCCNC(=N)N)NC(=O)[C@H](CCCNC(=N)N)NC(=O)[C@H](CCC(N)=O)NC(=O)[C@H](CCCNC(=N)N)NC(=O)[C@H](CCCNC(=N)N)NC(=O)[C@H](CCCCN)NC(=O)[C@H](CCCCN)NC(=O)[C@H](CCCNC(=N)N)NC(=O)CNC(=O)[C@H](Cc1ccc(O)cc1)NC(=O)CCC(=O)NCCCOCCOCCOCCCNC(=O)CCC(=O)OC[C@H]1O[C@@H](c2n[nH]nc2C(N)=O)[C@H](O)[C@@H]1O)C(N)=O,,,,,,Activity [1]: 45%
O=C(NCCCO)c1n[nH]nc1[C@@H]1O[C@H](CO)[C@@H](O)[C@H]1O,,45,20,68,13.4,
